ChEMBL document CHEMBL1142268, “Histone deacetylase inhibitors: from bench to clinic” (J Med Chem, 2008)
Values belong to the molecule of their own block, whether it stands above or below them. The source made the active and inactive calls. The calls are words filed in the database; no cut-off is given here.

What was measured:
COLO 205 = assay: Inhibition of human CoLo205 cells; type: functional
NCI-H460 = assay: Inhibition of human NCI-H460 cells; type: functional, cell-based
MDA-MB-231 = assay: Inhibition of human MDA-MB-231 cells; type: functional, cell-based
SNB-78 = assay: Inhibition of human SNB78 cells; type: functional, cell-based
HCT-116 [1] = assay: Inhibition of human HCT116 cells; type: functional, cell-based
NCI-H226 = assay: Inhibition of human NCI-H226 cells; type: functional, cell-based
LOX IMVI = assay: Inhibition of human LOX-IMVI cells; type: functional, cell-based
SK-OV-3 = assay: Inhibition of human SKOV3 cells; type: functional, cell-based
[2] = Inhibition of human RFX631L cells; type: functional
St-4 = assay: Inhibition of human St4 cells; type: functional, cell-based
DU-145 = assay: Inhibition of human DU145 cells; type: functional, cell-based
HCT-116 [3] = assay: Antitumor activity against human HCT116 cells xenografted in ip dosed nude mouse assessed as tumor volume inhibition; type: functional
Histone deacetylase 1 [4] = target: T1, Histone deacetylase 1 (Homo sapiens, UniProt Q13547); assay: Inhibition of HDAC1
T1 sequence (Q13547 whole entry): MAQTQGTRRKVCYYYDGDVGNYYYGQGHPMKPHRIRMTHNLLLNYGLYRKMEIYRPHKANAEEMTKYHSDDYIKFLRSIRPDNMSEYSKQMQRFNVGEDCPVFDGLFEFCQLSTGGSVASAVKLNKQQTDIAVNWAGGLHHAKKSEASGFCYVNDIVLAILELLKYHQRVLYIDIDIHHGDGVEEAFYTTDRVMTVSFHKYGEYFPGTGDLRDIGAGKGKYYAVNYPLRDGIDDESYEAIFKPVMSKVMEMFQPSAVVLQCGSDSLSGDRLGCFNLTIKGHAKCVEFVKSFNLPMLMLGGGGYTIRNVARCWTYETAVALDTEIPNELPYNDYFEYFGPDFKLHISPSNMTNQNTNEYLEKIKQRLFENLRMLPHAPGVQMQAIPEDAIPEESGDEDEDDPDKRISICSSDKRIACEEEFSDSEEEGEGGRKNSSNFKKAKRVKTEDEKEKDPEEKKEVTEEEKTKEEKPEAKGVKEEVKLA

Histone deacetylase 1 [5] = target: T1, Histone deacetylase 1
Description: Inhibition of human HDAC1

Histone deacetylase 1 [6] = target: T1, Histone deacetylase 1; remark: listed apart in the source
Description: Inhibition of human HDAC1 assessed as histone H4 acetylation in cell based assay

[7] = Bioavailability in […] dosed rat; type: ADME, organism-based; conditions: in vivo
A549 [8] = assay: Antitumor activity against human A549 cells xenografted in nude mouse model at 50 mg/kg, po; type: functional; conditions: read-out: TGI
PANC-1 = assay: Antitumor activity against human PANC1 cells xenografted in nude mouse model at 50 mg/kg, po; type: functional; conditions: read-out: TGI
SW48 [9] = assay: Antitumor activity against human SW48 cells xenografted in nude mouse model at 30 mg/kg, po; type: functional; conditions: read-out: TGI
A549 [10] = assay: Antitumor activity against human A549 cells xenografted in nude mouse model at 40 mg/kg, ip; type: functional; conditions: route intraperitoneal, read-out: TGI
HCT-116 [11] = assay: Antitumor activity against human HCT116 cells xenografted in nude mouse model at 75 mg/kg, ip; type: functional; conditions: HCT-116, ip, route intraperitoneal, read-out: TGI
SW48 [12] = assay: Antitumor activity against human SW48 cells xenografted in nude mouse model at 75 mg/kg, ip; type: functional; conditions: route intraperitoneal, read-out: TGI
HeLa = assay: Inhibition of human HeLa cells; type: functional, cell-based
HL-60 = assay: Inhibition of human HL60 cells; type: functional
Histone deacetylase 3 = Histone deacetylase 3 (Homo sapiens, UniProt O15379)
Chain of Histone deacetylase 3 (O15379 whole entry): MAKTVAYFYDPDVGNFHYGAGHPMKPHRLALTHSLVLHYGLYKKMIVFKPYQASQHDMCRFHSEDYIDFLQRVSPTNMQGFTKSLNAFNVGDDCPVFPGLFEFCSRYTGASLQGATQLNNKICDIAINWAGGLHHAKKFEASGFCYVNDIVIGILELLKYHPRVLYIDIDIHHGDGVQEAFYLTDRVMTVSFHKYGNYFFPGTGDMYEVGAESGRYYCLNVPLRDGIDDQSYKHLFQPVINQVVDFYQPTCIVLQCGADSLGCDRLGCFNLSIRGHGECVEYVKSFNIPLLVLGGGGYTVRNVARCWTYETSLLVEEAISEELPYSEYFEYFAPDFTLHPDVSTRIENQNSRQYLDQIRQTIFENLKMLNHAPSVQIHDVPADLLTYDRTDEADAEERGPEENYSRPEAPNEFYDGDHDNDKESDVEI

MCF7 = assay: Inhibition of human MCF7 cells; type: functional, cell-based
Histone deacetylase 2 = Histone deacetylase 2 (Homo sapiens, UniProt Q92769)
Chain of Histone deacetylase 2 (Q92769 whole entry): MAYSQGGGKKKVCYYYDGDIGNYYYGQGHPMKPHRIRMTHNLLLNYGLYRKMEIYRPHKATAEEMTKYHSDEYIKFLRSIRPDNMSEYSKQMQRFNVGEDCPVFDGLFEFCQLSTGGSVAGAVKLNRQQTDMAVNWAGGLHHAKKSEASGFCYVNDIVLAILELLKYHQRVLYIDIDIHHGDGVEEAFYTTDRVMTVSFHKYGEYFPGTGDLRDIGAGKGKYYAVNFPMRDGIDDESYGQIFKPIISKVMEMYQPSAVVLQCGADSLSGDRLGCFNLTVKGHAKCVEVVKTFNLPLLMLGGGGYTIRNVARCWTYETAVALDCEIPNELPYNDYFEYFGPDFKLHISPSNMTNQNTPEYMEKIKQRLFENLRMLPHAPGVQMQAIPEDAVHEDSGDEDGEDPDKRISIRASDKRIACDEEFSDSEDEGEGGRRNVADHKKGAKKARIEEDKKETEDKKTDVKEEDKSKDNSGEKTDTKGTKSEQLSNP

Histone deacetylase 1 [13] = target: T1, Histone deacetylase 1; assay: Inhibition of HDAC1 from human HeLa cells; type: cell-based
[14] = Metabolic stability in human liver microsomes; type: ADME, Microsome
U-937 = assay: Inhibition of human U937 cells; type: functional, cell-based
A2780 = assay: Inhibition of human A2780 cells; type: functional, cell-based
G-401 = assay: Inhibition of human G401 cells; type: functional, cell-based
[15] = Growth inhibition of human renal epithelial cells; type: functional, cell-based; conditions: Epithelial cell
Histone deacetylase 1 [16] = target: T1, Histone deacetylase 1; remark: listed apart in the source
Histone deacetylase 8 = target: T2, Histone deacetylase 8 (Homo sapiens, UniProt Q9BY41)
T2 sequence (Q9BY41 whole entry): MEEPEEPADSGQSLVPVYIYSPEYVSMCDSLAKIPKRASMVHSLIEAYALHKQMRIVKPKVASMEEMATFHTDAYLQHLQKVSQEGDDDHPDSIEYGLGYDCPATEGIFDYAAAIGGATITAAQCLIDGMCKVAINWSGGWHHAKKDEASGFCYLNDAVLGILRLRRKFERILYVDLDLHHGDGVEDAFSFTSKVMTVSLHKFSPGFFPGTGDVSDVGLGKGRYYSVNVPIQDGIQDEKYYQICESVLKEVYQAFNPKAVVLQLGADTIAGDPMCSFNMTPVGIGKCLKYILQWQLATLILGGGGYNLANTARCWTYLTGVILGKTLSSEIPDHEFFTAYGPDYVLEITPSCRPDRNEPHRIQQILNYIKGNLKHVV

[17] = target: T3, Protein deacetylase HDAC6 (Homo sapiens, UniProt Q9UBN7)
T3 sequence (Q9UBN7 whole entry): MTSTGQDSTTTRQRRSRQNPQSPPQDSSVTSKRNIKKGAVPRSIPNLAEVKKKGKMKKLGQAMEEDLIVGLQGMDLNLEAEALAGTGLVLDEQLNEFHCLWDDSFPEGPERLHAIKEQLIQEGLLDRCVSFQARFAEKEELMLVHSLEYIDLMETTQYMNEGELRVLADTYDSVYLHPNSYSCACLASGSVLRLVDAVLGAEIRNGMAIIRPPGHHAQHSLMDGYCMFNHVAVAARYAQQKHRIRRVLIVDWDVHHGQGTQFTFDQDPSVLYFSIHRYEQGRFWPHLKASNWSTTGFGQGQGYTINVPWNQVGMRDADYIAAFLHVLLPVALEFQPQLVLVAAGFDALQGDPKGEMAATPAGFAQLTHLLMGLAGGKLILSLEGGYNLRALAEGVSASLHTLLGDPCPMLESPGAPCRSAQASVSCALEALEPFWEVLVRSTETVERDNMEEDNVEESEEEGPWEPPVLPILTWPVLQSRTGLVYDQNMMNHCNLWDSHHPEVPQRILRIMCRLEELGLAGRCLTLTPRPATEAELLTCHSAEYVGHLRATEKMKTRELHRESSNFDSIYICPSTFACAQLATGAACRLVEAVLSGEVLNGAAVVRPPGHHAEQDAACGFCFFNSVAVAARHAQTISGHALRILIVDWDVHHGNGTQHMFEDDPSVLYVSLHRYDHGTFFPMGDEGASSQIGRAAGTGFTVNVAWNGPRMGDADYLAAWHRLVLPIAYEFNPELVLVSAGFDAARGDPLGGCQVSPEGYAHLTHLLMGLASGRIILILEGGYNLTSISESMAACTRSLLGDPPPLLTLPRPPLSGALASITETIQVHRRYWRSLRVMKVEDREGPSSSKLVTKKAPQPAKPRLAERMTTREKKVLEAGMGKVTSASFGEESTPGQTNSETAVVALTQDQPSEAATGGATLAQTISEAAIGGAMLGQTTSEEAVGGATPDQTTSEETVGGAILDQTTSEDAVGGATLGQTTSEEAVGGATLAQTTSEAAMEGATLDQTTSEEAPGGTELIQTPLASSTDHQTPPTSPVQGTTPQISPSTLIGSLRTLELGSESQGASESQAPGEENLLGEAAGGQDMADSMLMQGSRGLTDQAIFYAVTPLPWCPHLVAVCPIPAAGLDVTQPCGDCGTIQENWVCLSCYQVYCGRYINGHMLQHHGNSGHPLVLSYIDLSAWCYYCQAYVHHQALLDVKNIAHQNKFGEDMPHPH

Histone deacetylase 5 = Histone deacetylase 5 (Homo sapiens, UniProt Q9UQL6)
Chain of Histone deacetylase 5 (Q9UQL6 whole entry): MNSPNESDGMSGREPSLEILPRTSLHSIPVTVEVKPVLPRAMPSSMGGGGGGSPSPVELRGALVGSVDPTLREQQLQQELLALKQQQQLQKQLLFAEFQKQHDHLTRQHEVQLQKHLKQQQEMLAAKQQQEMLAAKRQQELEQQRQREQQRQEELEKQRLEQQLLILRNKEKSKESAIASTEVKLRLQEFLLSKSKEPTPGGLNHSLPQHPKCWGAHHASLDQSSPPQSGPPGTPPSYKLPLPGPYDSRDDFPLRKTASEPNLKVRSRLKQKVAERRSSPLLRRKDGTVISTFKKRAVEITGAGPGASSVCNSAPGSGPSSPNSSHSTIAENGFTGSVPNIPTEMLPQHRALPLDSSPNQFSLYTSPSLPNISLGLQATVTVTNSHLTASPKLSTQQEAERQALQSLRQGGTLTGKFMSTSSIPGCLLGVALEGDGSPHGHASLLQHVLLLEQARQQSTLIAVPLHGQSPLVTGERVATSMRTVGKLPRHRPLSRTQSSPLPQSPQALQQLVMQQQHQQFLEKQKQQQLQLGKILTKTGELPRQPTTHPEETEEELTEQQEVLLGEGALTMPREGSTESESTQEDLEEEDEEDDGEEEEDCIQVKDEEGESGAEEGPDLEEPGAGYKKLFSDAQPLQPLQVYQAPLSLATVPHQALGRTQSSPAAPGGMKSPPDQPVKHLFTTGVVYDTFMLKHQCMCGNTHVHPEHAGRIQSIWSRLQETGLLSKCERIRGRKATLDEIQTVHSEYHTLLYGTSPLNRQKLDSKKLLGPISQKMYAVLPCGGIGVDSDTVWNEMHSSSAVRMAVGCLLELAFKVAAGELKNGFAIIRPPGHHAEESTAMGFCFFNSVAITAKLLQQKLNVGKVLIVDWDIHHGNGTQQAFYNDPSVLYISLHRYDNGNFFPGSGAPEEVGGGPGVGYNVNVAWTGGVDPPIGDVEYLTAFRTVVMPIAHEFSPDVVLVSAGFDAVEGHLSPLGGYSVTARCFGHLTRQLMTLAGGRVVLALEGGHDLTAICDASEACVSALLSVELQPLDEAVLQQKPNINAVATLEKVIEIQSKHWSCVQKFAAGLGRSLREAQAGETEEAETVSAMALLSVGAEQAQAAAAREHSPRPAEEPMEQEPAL

Histone deacetylase 4 = Histone deacetylase 4 (Homo sapiens, UniProt P56524)
Chain of Histone deacetylase 4 (P56524 whole entry): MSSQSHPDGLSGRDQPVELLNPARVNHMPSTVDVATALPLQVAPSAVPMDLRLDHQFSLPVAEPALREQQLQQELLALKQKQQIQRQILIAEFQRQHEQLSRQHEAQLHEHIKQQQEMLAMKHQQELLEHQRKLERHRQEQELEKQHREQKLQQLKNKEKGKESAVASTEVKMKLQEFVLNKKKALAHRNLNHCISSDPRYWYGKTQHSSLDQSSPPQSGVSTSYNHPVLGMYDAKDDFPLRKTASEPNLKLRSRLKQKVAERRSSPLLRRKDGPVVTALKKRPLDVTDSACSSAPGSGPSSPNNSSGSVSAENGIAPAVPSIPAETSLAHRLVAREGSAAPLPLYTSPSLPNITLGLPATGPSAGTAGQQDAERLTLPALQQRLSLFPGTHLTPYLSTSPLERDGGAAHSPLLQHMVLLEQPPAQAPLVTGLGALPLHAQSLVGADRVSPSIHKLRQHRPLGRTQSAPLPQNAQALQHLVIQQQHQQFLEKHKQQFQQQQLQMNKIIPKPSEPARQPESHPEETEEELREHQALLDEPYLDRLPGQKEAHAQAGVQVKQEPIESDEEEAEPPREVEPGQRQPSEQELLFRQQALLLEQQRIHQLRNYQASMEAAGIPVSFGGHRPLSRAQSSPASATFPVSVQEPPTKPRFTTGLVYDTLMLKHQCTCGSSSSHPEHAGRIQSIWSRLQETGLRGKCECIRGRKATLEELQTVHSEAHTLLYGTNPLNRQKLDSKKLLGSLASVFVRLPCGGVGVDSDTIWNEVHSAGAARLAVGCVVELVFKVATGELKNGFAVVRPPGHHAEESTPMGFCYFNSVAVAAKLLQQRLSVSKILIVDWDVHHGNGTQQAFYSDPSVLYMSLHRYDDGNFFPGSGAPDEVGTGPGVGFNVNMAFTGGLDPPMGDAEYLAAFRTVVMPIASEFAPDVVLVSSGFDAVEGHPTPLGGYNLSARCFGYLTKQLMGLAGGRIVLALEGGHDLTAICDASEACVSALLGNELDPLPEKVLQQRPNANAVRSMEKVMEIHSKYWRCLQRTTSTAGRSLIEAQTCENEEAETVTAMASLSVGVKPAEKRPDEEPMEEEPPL

A549 [18] = assay: cells; conditions: Homo sapiens
Description: Antiproliferative activity against human A549 cells

[19] = target: Histone deacetylase 7 (Homo sapiens) (UniProt Q8WUI4); assay: Inhibition of HDAC7
Chain of Histone deacetylase 7 (Homo sapiens) (Q8WUI4 whole entry): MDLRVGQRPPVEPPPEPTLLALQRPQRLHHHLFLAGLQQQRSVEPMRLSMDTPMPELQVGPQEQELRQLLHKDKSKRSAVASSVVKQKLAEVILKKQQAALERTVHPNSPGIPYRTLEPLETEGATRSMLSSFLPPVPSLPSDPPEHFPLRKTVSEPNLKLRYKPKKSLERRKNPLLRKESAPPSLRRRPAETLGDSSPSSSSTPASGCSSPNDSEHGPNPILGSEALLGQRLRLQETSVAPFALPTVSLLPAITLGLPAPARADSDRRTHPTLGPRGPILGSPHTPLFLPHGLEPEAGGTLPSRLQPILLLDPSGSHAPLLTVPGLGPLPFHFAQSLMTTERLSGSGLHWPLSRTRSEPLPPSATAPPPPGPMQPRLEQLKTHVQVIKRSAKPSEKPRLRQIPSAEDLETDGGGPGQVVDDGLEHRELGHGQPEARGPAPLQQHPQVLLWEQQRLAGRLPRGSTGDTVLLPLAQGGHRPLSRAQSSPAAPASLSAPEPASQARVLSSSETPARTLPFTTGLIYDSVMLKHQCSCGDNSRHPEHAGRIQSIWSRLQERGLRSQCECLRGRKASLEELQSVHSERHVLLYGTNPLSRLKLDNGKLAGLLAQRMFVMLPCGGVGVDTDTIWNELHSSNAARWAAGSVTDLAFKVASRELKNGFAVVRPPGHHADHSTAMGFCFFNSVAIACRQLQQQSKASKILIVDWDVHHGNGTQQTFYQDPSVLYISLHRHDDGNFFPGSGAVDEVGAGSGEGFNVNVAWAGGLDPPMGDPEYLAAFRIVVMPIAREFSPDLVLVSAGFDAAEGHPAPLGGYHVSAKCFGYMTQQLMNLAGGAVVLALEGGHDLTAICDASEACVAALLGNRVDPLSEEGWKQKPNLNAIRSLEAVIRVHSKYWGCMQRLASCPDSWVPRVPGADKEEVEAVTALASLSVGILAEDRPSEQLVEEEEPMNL

[20] = target: Histone deacetylase 8 (Homo sapiens) (UniProt Q9BY41)
A549 [21] = assay: Antitumor activity against human A549 cells xenografted in nude mouse model at 70 mg/kg, po; type: functional; conditions: read-out: TGI
SW48 [22] = assay: Antitumor activity against human SW48 cells xenografted in nude mouse model at 60 mg/kg, po; type: functional; conditions: read-out: TGI
HCT-116 [23] = assay: Antitumor activity against human HCT116 cells xenografted in nude mouse model at 20 mg/kg, ip; type: functional; conditions: HCT-116, ip, route intraperitoneal, read-out: TGI
SW48 [24] = assay: Antitumor activity against human SW48 cells xenografted in nude mouse model at 25 mg/kg, ip; type: functional; conditions: route intraperitoneal, read-out: TGI

- GI50 (COLO 205): 260 nM
Structure (SMILES): CC(C)(C)NCc1c(-c2ccccc2)nc2cc(/C=C/C(=O)NO)ccn12

- EC50 (NCI-H460): 2000 nM
- EC50 (MDA-MB-231): 2300 nM
- EC50 (SNB-78): 9100 nM
- EC50 (HCT-116 [1]): 3000 nM
- EC50 (NCI-H226): 2600 nM
- EC50 (LOX IMVI): 1100 nM
- EC50 (SK-OV-3): 4500 nM
- EC50 [2]: 2400 nM
- EC50 (St-4): 5000 nM
- EC50 (DU-145): 4500 nM
Structure (SMILES): CC(C)C(=O)SCCCCCCC(=O)Nc1nc(-c2ccccc2)cs1

Structure (SMILES): COc1ccc(NCc2ccc(C(=O)Nc3cc(-c4cccs4)ccc3N)cc2)cc1OC
- Inhibition (HCT-116 [3]): 72%

- Activity (Histone deacetylase 1 [4]): inactive
Structure (SMILES): S=c1[nH]cc(-c2ccncc2)[nH]1

- IC50 (HCT-116 [1]): 5000 nM
- IC50 (Histone deacetylase 1 [5]): 3000 nM
- EC50 (Histone deacetylase 1 [6]): 5000 nM
Structure (SMILES): Nc1ccccc1NC(=O)CCCCCCNC(=O)c1ccc(-c2ccccc2)nc1

- IC50 (HCT-116 [1]): 400 nM
- bioavailability [7]: 20%
Structure (SMILES): COc1ccc(NCc2ccc(C(=O)Nc3ccccc3N)cc2)cc1OC
- inhibition in vivo at 50 mg/kg (A549 [8]): 67%
- inhibition in vivo at 50 mg/kg (PANC-1): 84%
- inhibition in vivo at 30 mg/kg (SW48 [9]): 78%
- inhibition in vivo at 40 mg/kg (A549 [10]): 73%
- inhibition in vivo at 75 mg/kg (HCT-116 [11]): 86%
- inhibition in vivo at 75 mg/kg (SW48 [12]): 100%

- GI50 (HeLa): 40000 nM
- GI50 (HL-60): 400 nM
Structure (SMILES): Nc1ccc(F)cc1NC(=O)c1ccc(CNC(=O)/C=C/c2ccccc2)cc1

Structure (SMILES): CC(=O)CCCCC[C@H](NC1CCCCN1C)C(=O)Nc1nc(-c2ccccc2)cs1 (some centres not stated)
- IC50 (Histone deacetylase 3): 14 nM
- IC50 (MCF7): 230 nM
- IC50 (Histone deacetylase 2): 170 nM
- IC50 (HCT-116 [1]): 670 nM
- IC50 (Histone deacetylase 1 [13]): 430 nM
- microsomal CLint [14]: 54 µL/min/mg
- IC50 (U-937): 450 nM
- IC50 (A2780): 1700 nM
- IC50 (G-401): 250 nM
- IC50 [15]: > 20000 nM
- IC50 (HeLa): 430 nM
- IC50 (Histone deacetylase 1 [16]): 55 nM
- IC50 (Histone deacetylase 8): 3000 nM
- IC50 (Histone deacetylase 1 [5]): 55 nM
- IC50 [17]: 13 nM
- IC50 (Histone deacetylase 5): 1900 nM
- AC50 (Histone deacetylase 4): Not Active
- IC50 (A549 [18]): 2000 nM
- Activity [19]: inactive

- IC50 (Histone deacetylase 1 [16]): 1500 nM
- Activity [20]: inactive
Structure (SMILES): O=C(CCc1ccccc1)Nc1ccc(C(=O)Nc2ccc(Oc3ccccc3)cc2)cc1

- IC50 (HCT-116 [1]): 2000 nM
Structure (SMILES): COc1cc(NCc2ccc(/C=C/C(=O)Nc3ccccc3N)cc2)cc(OC)c1OC
- inhibition in vivo at 70 mg/kg (A549 [21]): 40%
- inhibition in vivo at 60 mg/kg (SW48 [22]): 16%
- inhibition in vivo at 20 mg/kg (HCT-116 [23]): 80%
- inhibition in vivo at 25 mg/kg (SW48 [24]): 73%
